Data from patent publication US20240239752A1, “BICYCLIC HETEROAROMATIC INHIBITORS OF KLK5” (BioCryst Pharmaceuticals, Inc., priority 2021, published 2024).

The compounds below were run against T1, recombinant human KLK5 (Homo sapiens, UniProt Q9Y337) (assay: Kallikrein (KLK) 5 enzymatic assay (Boc-VPR-AMC fluorogenic substrate)). Conditions: recombinant human KLK5 0.1 μg/well, Boc-VPR-AMC 100 μM, pH 7.5, room temperature, 1% DMSO; tested a minimum of three times.
T1 construct: purchased Novoprotein or R&D Systems C415 or 1108-SE
T1 sequence (Q9Y337 23-293): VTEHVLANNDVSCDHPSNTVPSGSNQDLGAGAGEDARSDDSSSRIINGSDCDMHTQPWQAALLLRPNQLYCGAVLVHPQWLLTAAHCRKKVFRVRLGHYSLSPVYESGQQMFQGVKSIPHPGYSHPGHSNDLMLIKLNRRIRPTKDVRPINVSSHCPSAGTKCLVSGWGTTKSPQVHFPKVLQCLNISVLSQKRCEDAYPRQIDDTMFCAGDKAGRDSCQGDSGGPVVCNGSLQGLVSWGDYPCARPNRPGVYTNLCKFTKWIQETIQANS
Type: biochemical
Method in brief: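 Fluorogenic rate assay at pH 7.5 (0.1 M NaH2PO4, 1% DMSO, room temperature), run at least three times per compound. Compound was premixed with 0.1 μg/well recombinant human KLK5 before adding 100 μM Boc-VPR-AMC; AMC release was read at ex 380/em 460 nm, and IC50 derived from inhibition of rate vs DMSO control.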

IC50 [µM]	Compound
< 1	CCOC(=O)N1CCC(n2nc(COc3ccccc3CC(=O)O)c3cc(-c4cccc5c(N)nccc45)ccc32)C1 (centres unmarked) [Compound 311b, 2-(2-((5-(1-aminoisoquinolin-5-yl)-1-(1-(ethoxycarbonyl)pyrrolidin-3-yl)-1H-indazol-3-yl)methoxy)phenyl)acetic acid]
< 1	CCS(=O)(=O)N1CCC(n2nc(COc3ccccc3CC(=O)O)c3cc(-c4ccc5ccnc(N)c5c4)ccc32)C1 (centres unmarked) [Compound 312c, 2-(2-((5-(1-aminoisoquinolin-7-yl)-1-(1-(ethylsulfonyl)pyrrolidin-3-yl)-1H-indazol-3-yl)methoxy)phenyl)acetic acid]
< 1	CCS(=O)(=O)N1CCC(n2nc(COc3ccccc3CC(=O)O)c3cc(-c4cccc5c(N)nccc45)ccc32)C1 (centres unmarked) [Compound 313b, 2-(2-((5-(1-aminoisoquinolin-5-yl)-1-(1-(ethylsulfonyl)pyrrolidin-3-yl)-1H-indazol-3-yl)methoxy)phenyl)acetic acid]
> 10	COc1c(CN)cccc1-c1cc(OC)c2occ(COc3ccccc3CC(=O)O)c2c1 [Compound 324d, 2-(2-((5-(3-(aminomethyl)-2-methoxyphenyl)-7-methoxybenzofuran-3-yl)methoxy)phenyl)acetic acid]
< 1	COc1c(CN)cccc1-c1ccc2c(c1)c(COc1ccccc1CC(=O)O)nn2C(C)C [Compound 325b, 2-(2-((5-(3-(aminomethyl)-2-methoxyphenyl)-1-isopropyl-1H-indazol-3-yl)methoxy)phenyl)acetic acid]
< 1	COc1c(-c2ccc3c(c2)c(COc2ccccc2CC(=O)O)nn3C(C)C)ccnc1CN [Compound 326d, 2-(2-((5-(2-(aminomethyl)-3-methoxypyridin-4-yl)-1-isopropyl-1H-indazol-3-yl)methoxy)phenyl)acetic acid]
< 1	COc1c(-c2ccc3c(c2)c(COc2ccccc2CC(=O)O)nn3C2CCCC2)ccnc1CN [Compound 327d, 2-(2-((5-(2-(aminomethyl)-3-methoxypyridin-4-yl)-1-cyclopentyl-1H-indazol-3-yl)methoxy)phenyl)acetic acid]
1 to 10	COc1c(-c2ccc3c(c2)c(COc2ccccc2CC(=O)O)nn3C2CCC2)ccnc1CN [Compound 328d, 2-(2-((5-(2-(aminomethyl)-3-methoxypyridin-4-yl)-1-cyclobutyl-1H-indazol-3-yl)methoxy)phenyl)acetic acid]
1 to 10	COc1c(-c2cc3c(COc4ccccc4CC(=O)O)cccc3o2)ccnc1CN [Compound 329d, 2-(2-((2-(2-(aminomethyl)-3-methoxypyridin-4-yl)benzofuran-4-yl)methoxy)phenyl)acetic acid]
< 1	CCOC(=O)N1CC[C@@H](n2nc(COc3ccccc3CC(=O)O)c3cc(-c4cccc5c(N)nccc45)ccc32)C1 [Compound 340i, (R)-2-(2-((5-(1-aminoisoquinolin-5-yl)-1-(1-(ethoxycarbonyl)pyrrolidin-3-yl)-1H-indazol-3-yl)methoxy)phenyl)acetic acid]
< 1	CCOC(=O)N1CC[C@@H](n2nc(COc3cccc(C)c3CC(=O)O)c3cc(-c4cccc5c(N)nccc45)ccc32)C1 [Compound 341e, (R)-2-(2-((5-(1-aminoisoquinolin-5-yl)-1-(1-(ethoxycarbonyl)pyrrolidin-3-yl)-1H-indazol-3-yl)methoxy)-6-methylphenyl)acetic acid]
< 1	CCOC(=O)N1CC[C@@H](n2nc(COc3ccccc3CC(=O)O)c3cc(-c4ccc5ccnc(N)c5c4)ccc32)C1 [Compound 342b, (R)-2-(2-((5-(1-aminoisoquinolin-7-yl)-1-(1-(ethoxycarbonyl)pyrrolidin-3-yl)-1H-indazol-3-yl)methoxy)phenyl)acetic acid]
< 1	CCOC(=O)N1CC[C@H](n2nc(COc3cccc(C)c3CC(=O)O)c3cc(-c4ccc5ccnc(N)c5c4)ccc32)C1 [Compound 343i, (S)-2-(2-((5-(1-aminoisoquinolin-7-yl)-1-(1-(ethoxycarbonyl)pyrrolidin-3-yl)-1H-indazol-3-yl)methoxy)-6-methylphenyl)acetic acid]
< 1	CCOC(=O)N1CC[C@H](n2nc(COc3cccc(C)c3CC(=O)O)c3cc(-c4cccc5c(N)nccc45)ccc32)C1 [Compound 344b, (S)-2-(2-((5-(1-aminoisoquinolin-5-yl)-1-(1-(ethoxycarbonyl)pyrrolidin-3-yl)-1H-indazol-3-yl)methoxy)-6-methylphenyl)acetic acid]
< 1	CCOC(=O)N1CC[C@H](n2nc(COc3ccccc3CC(=O)O)c3cc(-c4cccc5c(N)nccc45)ccc32)C1 [Compound 345e, (S)-2-(2-((5-(1-aminoisoquinolin-5-yl)-1-(1-(ethoxycarbonyl)pyrrolidin-3-yl)-1H-indazol-3-yl)methoxy)phenyl)acetic acid]
< 1	CCOC(=O)N1CC[C@H](n2nc(COc3ccccc3CC(=O)O)c3cc(-c4ccc5ccnc(N)c5c4)ccc32)C1 [Compound 346b, (S)-2-(2-((5-(1-aminoisoquinolin-7-yl)-1-(1-(ethoxycarbonyl)pyrrolidin-3-yl)-1H-indazol-3-yl)methoxy)phenyl)acetic acid]
< 1	CCOC(=O)N1CCC2(CC1)CC(Oc1ccccc1CC(=O)O)c1cc(-c3ccc4ccnc(N)c4c3)ccc12 (centres unmarked) [Compound 349d, 2-(2-((5-(1-aminoisoquinolin-7-yl)-1′-(ethoxycarbonyl)-2,3-dihydrospiro[indene-1,4′-piperidin]-3-yl)oxy)phenyl)acetic acid]
< 1	Nc1nccc2ccc(-c3ccc4c(c3)C(Oc3ccccc3CC(=O)O)CC43CCOCC3)cc12 (centres unmarked) [Compound 350h, 2-(2-((5-(1-aminoisoquinolin-7-yl)-2,2′,3,3′,5′,6′-hexahydrospiro[indene-1,4′-pyran]-3-yl)oxy)phenyl)acetic acid]
< 1	Nc1nccc2c(-c3ccc4c(c3)C(Oc3ccccc3CC(=O)O)CC43CCOCC3)cccc12 (centres unmarked) [Compound 351b, 2-(2-((5-(1-aminoisoquinolin-5-yl)-2,2′,3,3′,5′,6′-hexahydrospiro[indene-1,4′-pyran]-3-yl)oxy)phenyl)acetic acid]
< 1	Cc1cccc(OC2CC3(CCOCC3)c3ccc(-c4ccc5ccnc(N)c5c4)cc32)c1CC(=O)O (centres unmarked) [Compound 352c, 2-(2-((5-(1-aminoisoquinolin-7-yl)-2,2′,3,3′,5′,6′-hexahydrospiro[indene-1,4′-pyran]-3-yl)oxy)-6-methylphenyl)acetic acid]
< 1	Cc1cccc(OC2CC3(CCOCC3)c3ccc(-c4cccc5c(N)nccc45)cc32)c1CC(=O)O (centres unmarked) [Compound 353b, 2-(2-((5-(1-aminoisoquinolin-5-yl)-2,2′,3,3′,5′,6′-hexahydrospiro[indene-1,4′-pyran]-3-yl)oxy)-6-methylphenyl)acetic acid]

Compound	IC50 [µM]
CC(C)(C)OC(=O)N1CCC2(CC1)CC(Oc1ccccc1CC(=O)O)c1cc(-c3cccc4c(N)nccc34)ccc12 (centres unmarked) [Compound 347d, 2-(2-((5-(1-aminoisoquinolin-5-yl)-1′-(tert-butoxycarbonyl)-2,3-dihydrospiro[indene-1,4′-piperidin]-3-yl)oxy)phenyl)acetic acid]	< 1
CC(C)(C)OC(=O)N1CCC2(CC1)CC(Oc1ccccc1CC(=O)O)c1cc(-c3ccc4ccnc(N)c4c3)ccc12 (centres unmarked) [Compound 348b, 2-(2-((5-(1-aminoisoquinolin-7-yl)-1′-(tert-butoxycarbonyl)-2,3-dihydrospiro[indene-1,4′-piperidin]-3-yl)oxy)phenyl)acetic acid]	< 1
